Data: PubChem BioAssay (NCI)
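Here, GI50 denotes the concentration required for 50% inhibition of growth. TGI is the concentration that stops growth completely.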

What was measured:
Assay in all cases: NCI anticancer screen, dose series, 384-well format
[1] = tested on: OVCAR-8 ovarian
[2] = tested on: EKVX NSCLC
[3] = tested on: U251 glioblastoma
[4] = tested on: SW-620 colon
[5] = tested on: NCI-H322M lung
[6] = tested on: SK-MEL-2 melanoma
[7] = tested on: A549 NSCLC
[8] = tested on: KM12 colon
[9] = tested on: MDA-MB-435 melanoma
[10] = tested on: COLO 205 colon
[11] = tested on: OVCAR-3 ovarian
[12] = tested on: MOLT-4 leukemia
[13] = tested on: SK-MEL-5 melanoma
[14] = tested on: ACHN renal
[15] = tested on: NCI/ADR-RES ovarian
[16] = tested on: SR leukemia
[17] = tested on: HT29 colon
[18] = tested on: K-562 leukemia
[19] = tested on: A498 renal
[20] = tested on: OVCAR-4 ovarian
[21] = tested on: MCF7 breast
[22] = tested on: SF-268 CNS
[23] = tested on: T-47D breast
[24] = tested on: SN12C renal
[25] = tested on: HS 578T breast
[26] = tested on: SNB-19 CNS
[27] = tested on: SK-OV-3 ovarian
[28] = tested on: RXF 393 renal
[29] = tested on: TK-10 renal
[30] = tested on: HCC-2998 colon
[31] = tested on: SK-MEL-28 melanoma
[32] = tested on: DU-145 prostate
[33] = tested on: NCI-H522 lung
[34] = tested on: HOP-92 NSCLC
[35] = tested on: HCT-116 colon
[36] = tested on: HL-60(TB) leukemia
[37] = tested on: NCI-H460 NSCLC
[38] = tested on: IGROV1 ovarian
[39] = tested on: MDA-MB-231 breast
[40] = tested on: 786-0 renal
[41] = tested on: OVCAR-5 ovarian
[42] = tested on: NCI-H23 lung
[43] = tested on: RPMI-8226 leukemia
[44] = tested on: MDA-MB-468 breast
[45] = tested on: PC-3 prostate
[46] = tested on: BT-549 breast
[47] = tested on: UO-31 renal
[48] = tested on: CAKI-1 renal
[49] = tested on: UACC-257 melanoma
[50] = tested on: CCRF-CEM leukemia
[51] = tested on: NCI-H226 lung

`CC[C@@H]1C(=O)N(C)c2cnc(Nc3ccc(C(=O)NC4CCN(C)CC4)cc3OC)nc2N1C1CCCC1` gave a GI50 [1] of less than 10 nM, a TGI [1] of less than 10 nM and a GI50 [2] of less than 10 nM. For the same compound, the TGI [2] was 62.1 nM, the GI50 [3] was less than 10 nM and the TGI [3] was 85.6 nM. The GI50 [4] was less than 10 nM, the TGI [4] was less than 10 nM and the GI50 [5] was less than 10 nM. For the same compound, the TGI [5] was 1400 nM, the GI50 [6] was less than 10 nM and the TGI [6] was less than 10 nM. The GI50 [7] was less than 10 nM, the TGI [7] was 121 nM and the GI50 [8] was less than 10 nM. It also gave a TGI [8] of less than 10 nM, a GI50 [9] of less than 10 nM and a TGI [9] of less than 10 nM. The GI50 [10] was less than 10 nM, the TGI [10] was less than 10 nM and the GI50 [11] was less than 10 nM. It also gave a TGI [11] of less than 10 nM, a GI50 [12] of less than 10 nM and a TGI [12] of less than 10 nM. The GI50 [13] was less than 10 nM, the TGI [13] was less than 10 nM and the GI50 [14] was 66.1 nM. It also gave a TGI [14] of 1560 nM, a GI50 [15] of 196 nM and a TGI [15] of 591 nM. It also gave a GI50 [16] of less than 10 nM, a TGI [16] of less than 10 nM and a GI50 [17] of less than 10 nM. For the same compound, the TGI [17] was 1090 nM, the GI50 [18] was less than 10 nM and the TGI [18] was less than 10 nM. The GI50 [19] was less than 10 nM, the TGI [19] was 814 nM and the GI50 [20] was 10.3 nM. The TGI [20] was 129 nM, the GI50 [21] was less than 10 nM and the TGI [21] was 904 nM. The GI50 [22] was less than 10 nM, the TGI [22] was 414 nM and the GI50 [23] was less than 10 nM. For the same compound, the TGI [23] was 166 nM, the GI50 [24] was less than 10 nM and the TGI [24] was 880 nM. It also gave a GI50 [25] of less than 10 nM, a TGI [25] of less than 10 nM and a GI50 [26] of less than 10 nM. The TGI [26] was 269 nM, the GI50 [27] was less than 10 nM and the TGI [27] was 107 nM. The GI50 [28] was less than 10 nM, the TGI [28] was less than 10 nM and the GI50 [29] was less than 10 nM. The TGI [29] was 235 nM, the GI50 [30] was less than 10 nM and the TGI [30] was less than 10 nM. For the same compound, the GI50 [31] was less than 10 nM, the TGI [31] was 1920 nM and the GI50 [32] was less than 10 nM. It also gave a TGI [32] of less than 10 nM, a GI50 [33] of less than 10 nM and a TGI [33] of less than 10 nM. It also gave a GI50 [34] of less than 10 nM, a TGI [34] of 1050 nM and a GI50 [35] of less than 10 nM. It also gave a TGI [35] of 135 nM, a GI50 [36] of less than 10 nM and a TGI [36] of less than 10 nM. It also gave a GI50 [37] of less than 10 nM, a TGI [37] of less than 10 nM and a GI50 [38] of less than 10 nM. For the same compound, the TGI [38] was 224 nM, the GI50 [39] was less than 10 nM and the TGI [39] was 1350 nM. The GI50 [40] was less than 10 nM, the TGI [40] was 149 nM and the GI50 [41] was less than 10 nM. For the same compound, the TGI [41] was 226 nM, the GI50 [42] was less than 10 nM and the TGI [42] was less than 10 nM. For the same compound, the GI50 [43] was less than 10 nM, the TGI [43] was less than 10 nM and the GI50 [44] was less than 10 nM. It also gave a TGI [44] of less than 10 nM, a GI50 [45] of less than 10 nM and a TGI [45] of 2460 nM. For the same compound, the GI50 [46] was less than 10 nM, the TGI [46] was less than 10 nM and the GI50 [47] was 77.1 nM. For the same compound, the TGI [47] was 1480 nM, the GI50 [48] was less than 10 nM and the TGI [48] was 1270 nM. It also gave a GI50 [49] of less than 10 nM, a TGI [49] of 1700 nM and a GI50 [50] of less than 10 nM. It also gave a TGI [50] of less than 10 nM, a GI50 [51] of 224 nM and a TGI [51] of 1920 nM.
